Source: patent publication US7214676B2, “Spirotricyclic derivatives and their use as phosphodiesterase-7 inhibitors” (Warner-Lambert Company LLC, priority 2001, dated 2007)

Molecular target: T1, PDE7A1 (Homo sapiens, UniProt Q13946)
T1 construct: made in house; host or cells: Sf21 insect cells, baculovirus expression system
Test: In vitro inhibition of phosphodiesterase 7
Assay type: biochemical
Conditions: substrate cAMP 50 nM, reaction stopped after 10 minutes; read-out: IC50 PDE7
Method: The capacity of the compounds of the invention to inhibit cyclic nucleotide phosphodiesterases was evaluated by measuring their IC50 (concentration necessary to inhibit the enzymatic activity by 50%).
PDE3A3, PDE4D3, PDE7A1 were cloned and expressed in insect cells Sf21 using the baculovirus expression system and we uses directly the cell culture supernatant as enzyme source. The source of PDE1 and of PDE5 were human cell lines (respectively TPH1 human monocytes and MCF7 human breast adenocarcinoma).
They were obtained partially purified on an anion exchange column (Mono Q) according to a method adapted from Lavan B. E., Lakey T., Houslay M. D. Biochemical pharmacology, 1989, 38 (22), 4123–4136.
Measurement of the enzymatic activity for the various types of PDE was then made according to a method adapted from W. J. Thompson et al. 1979, Advances in Cyclic Nucleotide Research, Vol. 10: 69–92, ed. G. Brooker et al. Raven Press, NY.
The substrate used was cGMP for PDE1 and PDE5 and cAMP for PDE 3, PDE 4 and PDE 7. The substrate concentration was 0.2 μM for PDE 1, PDE 3 and PDE 5, 0,25 μM for PDE 4 and 50 nM for PDE 7.
The enzymatic reaction was stopped after 1 hour for PDE 1, PDE 3 and PDE 5 and 10 minutes for PDE 4 and PDE 7.

T1 sequence (Q13946 whole entry, species assumed): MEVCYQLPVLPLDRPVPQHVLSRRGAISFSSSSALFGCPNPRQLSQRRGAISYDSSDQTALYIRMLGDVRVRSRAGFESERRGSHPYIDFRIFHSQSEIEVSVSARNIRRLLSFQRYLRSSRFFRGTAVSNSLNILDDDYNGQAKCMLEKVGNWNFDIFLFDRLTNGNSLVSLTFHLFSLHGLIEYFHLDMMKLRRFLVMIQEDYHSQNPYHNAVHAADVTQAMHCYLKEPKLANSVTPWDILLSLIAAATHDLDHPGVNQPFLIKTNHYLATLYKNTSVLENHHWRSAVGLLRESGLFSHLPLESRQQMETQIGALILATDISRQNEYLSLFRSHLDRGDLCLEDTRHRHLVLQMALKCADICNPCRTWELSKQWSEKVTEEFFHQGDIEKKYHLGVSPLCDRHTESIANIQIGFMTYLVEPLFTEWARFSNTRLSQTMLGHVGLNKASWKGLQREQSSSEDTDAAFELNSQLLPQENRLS

IC50 [nM] | Compound
14 | O=C1Nc2c(Cl)ccc(Cl)c2C2(CCCCC2)N1 [Example 15, 5′,8′-Dichlorospiro[cyclohexane-1-4′-3′,4′-dihydro)quinazolin]-2′(1′H)-one]
16 | O=C1Nc2c(Cl)cc(-c3ccccc3)cc2C2(CCCCC2)N1 [Example 26, 8′-Chloro-6′-phenylspiro[cyclohexane-1-4′-(3′,4′-dihydro)quinazolin]-2′(1′H)-one]
12 | O=C1Nc2c(Cl)cc(-c3ccc4[nH]ccc4c3)cc2C2(CCCCC2)N1 [Example 34, 8′-Chloro-6′-(1H-indol-5-yl)spiro[cyclohexane-1-4′-(3′,4′-dihydro)quinazolin]-2′(1H)-one]
18 | CN1CCN(C(=O)c2ccc(-c3cc(Cl)c4c(c3)C3(CCCCC3)NC(=O)N4)cc2)CC1 [Example 38, 8′-Chloro-6′-[4-(4-methyl-piperazine-1-carbonyl)phenyl]spiro[cyclohexane-1-4′-(3′,4′-dihydro)quinazolin]-2′(1′H)-one]
20 | CN(C)CCCNC(=O)c1cccc(-c2cc(Cl)c3c(c2)C2(CCCCC2)NC(=O)N3)c1 [Example 41, 8′-Chloro-6′-[3-(3-N-dimethylamino-propylcarboxamide)phenyl]spiro[-cyclohexane-1-4′-(3′,4′-dihydro)quinazolin]-2′(1′H)-one]
8 | O=C1Nc2c(Cl)cc(-c3ccc(C(=O)N4CCN(c5ncccn5)CC4)cc3)cc2C2(CCCCC2)N1 [Example 51, 8′-Chloro-6′-[4-(4-pyrimidin-2-yl-piperazine-1-carbonyl)phenyl]spiro[-cyclohexane-1-4′-(3′,4′-dihydro)quinazolin]-2′(1′H)-one]
15 | O=C1Nc2c(Cl)cc(-c3ccc(C(=O)N4CCN(CCN5CCOCC5)CC4)cc3)cc2C2(CCCCC2)N1 [Example 52, 8′-Chloro-6′-[4-(4-(2-morpholin-4-yl-ethyl)-piperazine-1-carbonyl)-phenyl]spiro[-cyclohexane-1-4′-(3′,4′-dihydro)quinazolin]-2′(1′H)-one]
13 | O=C1Nc2c(Cl)cc(-c3ccc(C(=O)N4CCN(CC(=O)N5CCOCC5)CC4)cc3)cc2C2(CCCCC2)N1 [Example 53, 8′-Chloro-6′-[4-(4-(2-morpholin-4-yl-2-oxo-ethyl)-piperazine-1-carbonyl)-phenyl]spiro[-cyclohexane-1-4′-(3′,4′-dihydro)quinazolin]-2′(1′H)-one]
13 | O=C1Nc2c(Cl)cc(-c3ccc(C(=O)N4CCN(CCOCCO)CC4)cc3)cc2C2(CCCCC2)N1 [Example 54]
